Where two headings read alike, the source gives them in different places. Numbered stars: 1 amine (or outer) side, 2 acyl side, 3 side chain; on linkers, the order of the positions; unused ones are H or OH. Bridge positions count the residues as written; N and C are the ends. Square brackets hold non-standard residues; d marks the D form. Peptide text beside a SMILES is read from it. * marks the point of attachment. TBMB(SCH2CH2NH-DOTA) = O=C(O)CN1CCN(CC(=O)O)CCN(CC(=O)NCCSCc2cc(C[*:1])cc(C[*:2])c2)CCN(CC(=O)O)CC1; Phe(2-CF3) = N[C@@H](Cc1ccccc1C(F)(F)F)C(=O)O; Hyp = O=C(O)[C@@H]1C[C@@H](O)CN1; Hexanoyl = CCCCCC(=O)*; Aib = CC(C)(N)C(=O)O
Experiments:
U-87 MG cells [1] = settings: mouse, in vivo
Experimental: (§1) Experimental animals: Germline: B-NDG (Biocytogen Jiangsu Co., Ltd.); Age: 5-8 weeks old; Body weight: 20-24 g.
(§2) A sufficient quantity of U-87 MG cells was prepared and inoculated into the posterior position of the right forelimb of B-NDG mice in an inoculation volume of 100 µl, containing 50% Matrigel and 5 × 10^6 cells. After inoculation, the tumour volume and animal body weight were monitored twice a week. Model mice with a tumour volume between 200 and 500 m^3 were selected for enrolment in this experiment and randomly grouped on the basis of tumour volume.

[2] = PET/SPECT imaging test of labelled compounds in U-87 MG tumour-bearing mice; settings: B-NDG, mouse, tumour and kidney, iv, total radioactivity
Experimental: as §1, §2

U-87 MG cells [3] = assay: as above; settings: for Tumour uptake: 177Lu-labelled
Experimental: as §1, §2

[4] = rat, in vivo
Experimental: (§3) Experimental animals: Germline: SD rat (Beijing Vital River Laboratory Animal Technology Co., Ltd.); Age: 5-6 weeks old; Body weight: 100-150 g.
(§4) • 1) Empty tubes for γ-counting were weighed and labelled in advance. • 2) After the test sample was injected into the tail vein of rats, animal blood samples were collected from the orbit at 2 min, 5 min, 15 min, 30 min, 1 h, 2 h, 4 h, 6 h, 24 h, 48 h and 72 h. The sample tubes containing blood were weighed. • 3) The net weight of the blood was calculated, and the radioactive count of the collected blood was determined using a γ-counter. • 4) The distribution of the labelled compound in the blood of rats at different time points was determined. The test sample was accurately diluted 100-fold, and 0.5 ml of the dilution was added to a counting tube to serve as a 1% ID standard (i.e., one percent of the injected dose). The radioactive counts of both the 1% ID standard and the biological samples were simultaneously determined using the γ-counter. • 5) The pharmacokinetic parameters were calculated using DAS software.
(§5) Data obtained from rat blood was expressed as the percentage of radioactive count per gram of blood relative to the total dose (radioactive count) (%ID/g). Specific calculation formula: [formula]
(§6) At the same time, the drug concentration in the blood was calculated on the basis of the radioactive count in the blood. Specific calculation formula: Plasma concentration (μCi/mL) = ((CPMBlood/CPMTotal administered dose) × D (μCi)Administered dose)/(w (g) Blood/i (g/mL)Blood density) [formula]

[5] = Plasma concentration (pharmacokinetic) experiment of 177Lu-labelled compounds; settings: for tissue uptake: SD, rat, whole blood, iv, total radioactivity
Experimental: as §3, §4, §5, §6

U-87 MG cells [6] = assay: In vivo efficacy experiment in U-87 MG model mice; set-up: species or system B-NDG mice
Experimental: A total of 90 mice were inoculated. When the tumour in the mice grew to about […], 40 mice with uniform tumour sizes were selected for study enrolment.
The administration regimen was as follows: • Route of administration: tail vein injection; • Administration volume: 0.03-0.07 mL/animal; • Administration frequency and dose: The control group was given PBS, the ^177Lu-FAP-2286 group was given a single dose of 0.8 mCi/animal, the ^177Lu-DOTA-09 0.4mCi group was given a single dose of 0.4 mCi/animal, the ^177Lu-DOTA-09 0.8 mCi group was given a single dose of 0.8 mCi/animal, the ^177Lu-DOTA-09 0.8mCi×2 group was given two doses of 0.8 mCi/animal, with an administration interval of 35 days. Each group included eight animals. The administration time and administration activity of each mouse were recorded in detail.
After tumour modelling, the tumour size was observed. On the day before administration or the day of administration, the tumour volume was measured using a digital calliper, and the animal body weight was recorded. The animals were evenly divided into five groups on the basis of tumour volume, as follows: control group, ^177Lu-FAP-2286 0.8 mCi group, ^177Lu-DOTA-09 0.4 mCi group, ^177Lu-DOTA-09 0.8 mCi group, and ^177Lu-DOTA-09 0.8 mCi*2 group, with eight animals in each group.
On the day of administration, the test sample was taken for preparation (the stock solution of the test sample was directly used), and the activity of the prepared solution was measured.
From the second day after administration, the stage of tumour and body weight measurement began. The tumour and body weight measurement was performed at least twice a week. During each measurement, the long and short diameters of the tumour were recorded. The measurements were kept at the same location as possible. The abnormalities and deaths of the animals were recorded in time. […] The tumour volume was calculated as follows: tumour volume (mm^3) = long diameter × short diameter × short diameter × 0.52.

CCCCCC(=O)N[C@H]1CSCc2cc(CSCCNC(=O)CN3CCN(CC(=O)O)CCN(CC(=O)O)CCN(CC(=O)O)CC3)cc(c2)CSC[C@@H](C(=O)O)NC(=O)[C@H](Cc2ccccc2C(F)(F)F)NC(=O)[C@H](CCC(N)=O)NC(=O)[C@H]([C@@H](C)O)NC(=O)[C@@H]2C[C@@H](O)CN2C(=O)[C@@H]2CCCN2C(=O)C(C)(C)NC1=O [^177Lu-DOTA-09, metal not drawn] (Hexanoyl-C[Aib]P[Hyp]TQ[Phe(2-CF3)]C-OH; linker 1-8 via TBMB(SCH2CH2NH-DOTA))
course of tumour uptake / intratumoral retention (U-87 MG cells [1]): decreased slowly | tissue to tissue ratio at 0.5 h [2]: 6.08 ± 1.62 | tissue to tissue ratio at 1.5 h [2]: 8.66 ± 0.73 | tissue to tissue ratio at 4 h [2]: 11.8 ± 2.62 | tissue to tissue ratio at 24 h [2]: 19.4 ± 5.84 | Tumour uptake (U-87 MG cells [3]; Table 5, 0.5 h): 29.52±2.98 | Tumour uptake (U-87 MG cells [3]; Table 5, 1.5 h): 30.88±3.14 | Tumour uptake (U-87 MG cells [3]; Table 5, 4.0 h): 31.09±3.88 | Tumour uptake (U-87 MG cells [3]; Table 5, 24h): 30.46±1.99 | Tumour uptake (U-87 MG cells [3]; Table 5, 48h): 24.10±2.21 | Tumour uptake (U-87 MG cells [3]; Table 5, 72h): 20.59±1.91 | Tumour uptake (U-87 MG cells [3]; Table 5, 168h): 12.81±0.90 | tumour/kidney ratio compared with control (U-87 MG cells [3]; versus 177Lu-FAP-2286, in words): higher | half-life (t1/2) compared with control [4]: significantly longer | t1/2 [4]: 9.12 ± 4.69 h | Cl_obs ([5]; SD rat, tail vein, blood): 0.10±0.02 µCi/h*%ID/g | Cmax ([5]; SD rat, tail vein, blood): 0.89±0.21 %ID/g | MRTlast ([5]; SD rat, tail vein, blood): 15.49 ± 0.36 h | Vz_obs ([5]; SD rat, tail vein, blood): 2.21±0.38 µCi/%ID/g | tissue uptake ([5]; AUCINF_obs, SD rat, tail vein, blood): 5.28 ± 1.07 | tissue uptake ([5]; AUClast, SD rat, tail vein, blood): 5.04 ± 0.94 | mean residence time (MRTlast) compared with control ([5]; rats, versus 177Lu-FAP-2286, in words): significantly longer | body weight changes of mice (U-87 MG cells [6]; during administration, all dose groups): No significant body weight changes

CCCCCC(=O)N[C@H]1CSCc2cc(CSCCNC(=O)CN3CCN(CC(=O)O)CCN(CC(=O)O)CCN(CC(=O)O)CC3)cc(c2)CSC[C@@H](C(=O)O)NC(=O)[C@H](Cc2ccccc2)NC(=O)[C@H](CCC(N)=O)NC(=O)[C@H]([C@@H](C)O)NC(=O)[C@@H]2CCCN2C(=O)[C@@H]2CCCN2C1=O [^177Lu-FAP-2286, metal not drawn]
course of tumour uptake / intratumoral retention (U-87 MG cells [1]): rapid decrease in intratumoral retention after 4 hours | tissue to tissue ratio at 0.5 h [2]: 3.29 ± 0.78 | tissue to tissue ratio at 1.5 h [2]: 6.53 ± 1.12 | tissue to tissue ratio at 4 h [2]: 9.82 ± 4.79 | tissue to tissue ratio at 24 h [2]: 2.75 ± 0.9 | Cl_obs [4]: 0.53±0.08 µCi/h*%ID/g | Cmax [4]: 0.73±0.27 %ID/g | MRTlast [4]: 2.52 ± 0.34 h | Vz_obs [4]: 1.50±0.97 µCi/%ID/g | t1/2 [4]: 1.29 ± 0.43 h | tumour inhibition rate (U-87 MG cells [6]; day 20 after administration, single dose of 0.8 mCi/animal): 40.02% | tumour size (U-87 MG cells [6]; day 20 after administration, single dose of 0.8 mCi/animal, tail vein): 1833.89 ± 338.00 mm^3 | median survival time (U-87 MG cells [6]; single dose of 0.8 mCi/animal): 39 days

From patent EP4745151A1, “FIBROBLAST ACTIVATION PROTEIN LIGAND AND USE THEREOF” (Jiangsu Hengrui Pharmaceuticals Co., Ltd., priority 2023, dated 2025)
